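The compound was tested at five concentrations on cells cultured in 96-well plates, with a 48-hour exposure period. GI50 = concentration required for 50% inhibition of growth.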 Calls of active or inactive are those of the source. Rule as the data show it: active = GI50 up to about 1.1 µM and inactive = higher.
Tests used:
Test in all cases: DTP human tumour cell line panel, 48 h
A549 = test system: A549
ACHN = test system: ACHN
COLO 205 = test system: COLO 205
DU-145 = test system: DU-145
HCT-116 = test system: HCT-116
HT-29 = test system: HT-29
IGROV-1 = test system: IGROV-1
KM12 = test system: KM12
M14 = test system: M14
MCF7 = test system: MCF7
MDA-N = test system: MDA-N
NCI-H522 = test system: NCI-H522
OVCAR-5 = test system: OVCAR-5
SK-MEL-5 = test system: SK-MEL-5
SNB-19 = test system: SNB-19
UACC-257 = test system: UACC-257
UACC-62 = test system: UACC-62
HCC 2998 = test system: HCC 2998
SNB-75 = test system: SNB-75
SR = test system: SR

Structure (SMILES)	GI50 (A549)	GI50 (ACHN)	GI50 (COLO 205)	GI50 (DU-145)	GI50 (HCT-116)	GI50 (HT-29)	GI50 (IGROV-1)	GI50 (KM12)	GI50 (M14)	GI50 (MCF7)	GI50 (MDA-N)	GI50 (NCI-H522)	GI50 (OVCAR-5)	GI50 (SK-MEL-5)	GI50 (SNB-19)	GI50 (UACC-257)	GI50 (UACC-62)	GI50 (HCC 2998)	GI50 (SNB-75)	GI50 (SR)
NC(=O)Nc1ccc(S(=O)(=O)Nc2ccc(S(N)(=O)=O)cc2)cc1	> 100 µM (inactive)	> 100 µM (inactive)	> 100 µM (inactive)	> 100 µM (inactive)	> 100 µM (inactive)	> 100 µM (inactive)	> 100 µM (inactive)	> 100 µM (inactive)	> 100 µM (inactive)	> 100 µM (inactive)	> 100 µM (inactive)	> 100 µM (inactive)	> 100 µM (inactive)	> 100 µM (inactive)	> 100 µM (inactive)	> 100 µM (inactive)	> 100 µM (inactive)			
CCOC(=O)Cc1csc2[n+]1C(=O)/C(=C\c1cccc(Cl)c1Cl)S2	14.8 µM (inactive)	17.9 µM (inactive)	1.7 µM (inactive)	16.9 µM (inactive)	12.7 µM (inactive)	21.8 µM (inactive)	20.1 µM (inactive)	15.4 µM (inactive)	26.9 µM (inactive)	28.1 µM (inactive)	17.7 µM (inactive)	14.8 µM (inactive)	32.6 µM (inactive)	8.93 µM (inactive)	21 µM (inactive)	20.1 µM (inactive)	4.94 µM (inactive)	17.7 µM (inactive)	23.8 µM (inactive)	
COc1ccc(-c2cc(-c3cc4cc(Br)ccc4nc3Cl)c(C#N)c(N)n2)cc1	> 12.5 µM (inactive)		> 12.5 µM (inactive)	> 12.5 µM (inactive)	> 12.5 µM (inactive)	> 12.5 µM (inactive)	> 12.5 µM (inactive)	> 12.5 µM (inactive)	> 12.5 µM (inactive)	> 12.5 µM (inactive)	> 12.5 µM (inactive)	> 12.5 µM (inactive)	10.7 µM (inactive)	> 12.5 µM (inactive)	> 12.5 µM (inactive)				> 12.5 µM (inactive)	4.28 µM (inactive)
COc1cccc(-n2nnc3c(N)nc(N)nc32)c1	> 100 µM (inactive)	53.7 µM (inactive)	> 100 µM (inactive)	> 100 µM (inactive)	> 100 µM (inactive)	> 100 µM (inactive)	51.6 µM (inactive)	> 100 µM (inactive)	> 100 µM (inactive)	> 100 µM (inactive)	> 100 µM (inactive)	> 100 µM (inactive)	> 100 µM (inactive)	> 100 µM (inactive)	48.8 µM (inactive)	> 100 µM (inactive)	33.3 µM (inactive)		15.7 µM (inactive)	
C/C=C1\CC2C(=O)CCC2C2c3ccccc3OC12 (centres undefined)	> 100 µM (inactive)	> 100 µM (inactive)	> 100 µM (inactive)	0.0617 µM (active)	> 100 µM (inactive)	> 100 µM (inactive)	> 100 µM (inactive)	> 100 µM (inactive)	> 100 µM (inactive)	> 100 µM (inactive)	0.0718 µM (active)	> 100 µM (inactive)	> 100 µM (inactive)	> 100 µM (inactive)	> 100 µM (inactive)	> 100 µM (inactive)	> 100 µM (inactive)		> 100 µM (inactive)	> 100 µM (inactive)
CC1=C(\C=C/C(C)=C/C=C/C(C)=C/C=C/C=C(C)\C=C\C=C(C)/C=C/C2=C(C)CCCC2(C)C)C(C)(C)CCC1	> 10 µM (inactive)	> 100 µM (inactive)	52.6 µM (inactive)	> 100 µM (inactive)	22.1 µM (inactive)	56.4 µM (inactive)	> 100 µM (inactive)	39.6 µM (inactive)	> 100 µM (inactive)	75.2 µM (inactive)	40 µM (inactive)	35.4 µM (inactive)	> 100 µM (inactive)	> 100 µM (inactive)	> 100 µM (inactive)	> 100 µM (inactive)	> 100 µM (inactive)	> 100 µM (inactive)	> 100 µM (inactive)	
Cc1c(CNc2ccc(Cl)c(C(=O)NC(CC(=O)O)C(=O)O)c2)ccc2nc(N)nc(N)c12 (centres undefined)	1.33 µM (inactive)	0.0262 µM (active)	4.66 µM (inactive)	0.0588 µM (active)	< 0.01 µM (active)	< 0.0208 µM (active)	0.0715 µM (active)	0.106 µM (active)	0.0163 µM (active)	0.499 µM (active)	< 0.01 µM (active)	3.83 µM (inactive)	1.4 µM (inactive)	0.148 µM (active)	0.322 µM (active)	5.55 µM (inactive)	0.0501 µM (active)	0.256 µM (active)	> 32.3 µM (inactive)	
CCOCc1c(C)cc(C)c(C2C(C(=O)c3ccccc3)N3c4ccccc4C=CC3C2(C#N)C(=O)OCC)c1C (centres undefined)		50.9 µM (inactive)	19.1 µM (inactive)	37.8 µM (inactive)	26.7 µM (inactive)	32.3 µM (inactive)	10.6 µM (inactive)	16.8 µM (inactive)	36.5 µM (inactive)	24.8 µM (inactive)	27.4 µM (inactive)		64.9 µM (inactive)	14.8 µM (inactive)	> 100 µM (inactive)	50.1 µM (inactive)	31 µM (inactive)	18.1 µM (inactive)		82.8 µM (inactive)

Source: ChEMBL document CHEMBL1201862, “PubChem BioAssay data set” (2004)
